Source: patent US20110318375A1, “Immunomodulatory Therapeutic Agents” (priority 2009, published 2011)

Legend:
mouse antibody IgE = settings: cited from earlier work
Cytokine 12 Panel [1] = test: Cytokine 12 panels following oral administration of FPA (Table 6); type: in vivo, human; parameters: IL-12 / IL-10 / TNF-α / IL-2: unit not given here; settings: for IFN-γ / IL-4 / IL-5 / IL-6 / IL-8 / IL-13: nl: 0-5; for IL-12: nl: 0-6; for IL-2: nl: 0-12; for IL-10: nl: 0-18; for TNF-α: nl: 0-22; for IL-1β: nl: 0-36; for IL-2R: nl: 0-1033
Text: One of these patients was the same patient previously utilized, while the other was relatively neve to any previous Fibrinopeptide A treatment. The patient had taken two doses orally approximately seven weeks prior to this treatment, no lab work had been obtained with this prior dosing. […] This again elucidates the lack of effect of Fibrinopeptide A when given IV and the importance of utilizing a lymphatic route when treating with Fibrinopeptide A, and probably the others as well. [table] The data in table 6 further illustrates the up regulation of all aspects of the immune system in response to this persistent exposure to synthetic activated fibrinopeptide A through a lymphatic administration.

Cytokine 12 Panel [2] = test: Cytokine 12 panels after IV dose of 50 mg synthetic Fibrinopeptide A; type: in vivo, human; parameters: IL-10 / TNF-α / IL-2 / IL-12: unit not given here; settings: for IFN-γ / IL-4 / IL-5 / IL-6 / IL-8 / IL-13: nl: 0-5; for IL-12: nl: 0-6; for IL-2: nl: 0-12; for IL-10: nl: 0-18; for TNF-α: nl: 0-22; for IL-1β: nl: 0-36; for IL-2R: nl: 0-1033
Text: Peptide was suspended in an appropriate medium and a healthy volunteer took the preparation daily for two weeks, drawing blood for a cytokine 12 panel every five days. Due to the size of the molecules absorption from the mucosal route seemed unlikely, and the rapid digestion of peptides in the stomach would eliminate their efficacy in a true oral route. This same healthy volunteer had lab work drawn right before receiving an IV dose of synthetic Fibrinopeptide A. The IV dose was expected to have a more profound therapeutic effect, since treatment was simulating a normal intravascular biologic process. […] (Table 3). [table] In addition to these elevations, a mild elevation of Interleukin-6 was also observed. Interleukin-6 is a pro-inflammatory cytokine and is a very strong stimulator of the innate immune system. […] The most significant of these tests is the blood drawn one month after the IV dose was given. In this test the marked elevation of at least IL-10 and IL-1β, which had been present in each of the other dosages given by any route, was observed. […] This location for primary activity also explains the stimulation of the adaptive immune system over the innate immune response, as the lymphatic system is more involved in the adaptive response, while the vascular system is more involved in the innate response. The response to orally administered Fibrinopeptide A also solidifies this location of activity as transmucosal absorption occurs almost exclusively through the lymphatic route, occurs rapidly for those molecules which are absorbed, and the oral submucosal region (especially the sublingual region) has an extensive lymphatic drainage with rapid access to the cells which would produce this type of response while at least partially being shielded from the enzymes that inactivate the peptides of this invention. Since chronic fibrin deposition in the extravascular space is always pathologic and pro-inflammatory, it is not surprising that patients have a mechanism triggered by this deposition to aid in the removal of these substances. […] By signaling the need for removal from the extravascular space, the same process should occur for similar chronic deposits in the subintimal space.

[3] = 2 weeks back on FPA (different carrier)

ADSGEGDFLAEGGGV (listed as Homo sapiens) [Fibrinopeptide A]
87: IL-10 (Cytokine 12 Panel [2]; 10 Hours after IV 50 mg) | IL-10 (Cytokine 12 Panel [2]; 14 hours after IV 50 mg)
deglycosylates mouse antibody IgE: deglycosylation of IgE (mouse antibody IgE)
425: IL-2R (Cytokine 12 Panel [2]; 60 hours after IV 50 mg)
<5: IFN-γ (Cytokine 12 Panel [1]; 2 Weeks off FPA) | IL-4 (Cytokine 12 Panel [1]; 2 Weeks off FPA) | TNF-α (Cytokine 12 Panel [1]; 2 Weeks off FPA) | IL-4 (Cytokine 12 Panel [1]; [3]) | TNF-α (Cytokine 12 Panel [1]; [3]) | IFN-γ (Cytokine 12 Panel [1]; oral, 1 Week) | IL-4 (Cytokine 12 Panel [1]; oral, 1 Week) | IL-5 (Cytokine 12 Panel [1]; oral, 1 Week) | IL-6 (Cytokine 12 Panel [1]; oral, 1 Week) | IL-8 (Cytokine 12 Panel [1]; oral, 1 Week) | IL-13 (Cytokine 12 Panel [1]; oral, 1 Week) | IL-12 (Cytokine 12 Panel [1]; oral, 1 Week) | IL-2 (Cytokine 12 Panel [1]; oral, 1 Week) | TNF-α (Cytokine 12 Panel [1]; oral, 1 Week) | IL-4 (Cytokine 12 Panel [1]; oral, 2 weeks) | TNF-α (Cytokine 12 Panel [1]; oral, 2 weeks) | IFN-γ (Cytokine 12 Panel [2]; 10 Hours after IV 50 mg) | IL-4 (Cytokine 12 Panel [2]; 10 Hours after IV 50 mg) | IL-5 (Cytokine 12 Panel [2]; 10 Hours after IV 50 mg) | IL-8 (Cytokine 12 Panel [2]; 10 Hours after IV 50 mg) | IL-12 (Cytokine 12 Panel [2]; 10 Hours after IV 50 mg) | IL-2 (Cytokine 12 Panel [2]; 10 Hours after IV 50 mg) | TNF-α (Cytokine 12 Panel [2]; 10 Hours after IV 50 mg) | IFN-γ (Cytokine 12 Panel [2]; 14 hours after IV 50 mg) | IL-4 (Cytokine 12 Panel [2]; 14 hours after IV 50 mg) | IL-5 (Cytokine 12 Panel [2]; 14 hours after IV 50 mg) | IL-8 (Cytokine 12 Panel [2]; 14 hours after IV 50 mg) | IL-12 (Cytokine 12 Panel [2]; 14 hours after IV 50 mg) | IL-2 (Cytokine 12 Panel [2]; 14 hours after IV 50 mg) | TNF-α (Cytokine 12 Panel [2]; 14 hours after IV 50 mg) | IFN-γ (Cytokine 12 Panel [2]; 60 hours after IV 50 mg) | IL-4 (Cytokine 12 Panel [2]; 60 hours after IV 50 mg) | IL-5 (Cytokine 12 Panel [2]; 60 hours after IV 50 mg) | IL-8 (Cytokine 12 Panel [2]; 60 hours after IV 50 mg) | IL-12 (Cytokine 12 Panel [2]; 60 hours after IV 50 mg) | IL-2 (Cytokine 12 Panel [2]; 60 hours after IV 50 mg) | TNF-α (Cytokine 12 Panel [2]; 60 hours after IV 50 mg) | IFN-γ (Cytokine 12 Panel [2]; 30 days after IV 50 mg) | IL-4 (Cytokine 12 Panel [2]; 30 days after IV 50 mg) | IL-5 (Cytokine 12 Panel [2]; 30 days after IV 50 mg) | IL-6 (Cytokine 12 Panel [2]; 30 days after IV 50 mg) | IL-8 (Cytokine 12 Panel [2]; 30 days after IV 50 mg) | IL-13 (Cytokine 12 Panel [2]; 30 days after IV 50 mg) | IL-12 (Cytokine 12 Panel [2]; 30 days after IV 50 mg) | IL-2 (Cytokine 12 Panel [2]; 30 days after IV 50 mg) | TNF-α (Cytokine 12 Panel [2]; 30 days after IV 50 mg) | IL-1β (Cytokine 12 Panel [2]; 30 days after IV 50 mg) | IFN-γ (Cytokine 12 Panel [2]; Pre and 1 month after IV Use) | IL-4 (Cytokine 12 Panel [2]; Pre and 1 month after IV Use) | IL-5 (Cytokine 12 Panel [2]; Pre and 1 month after IV Use) | IL-6 (Cytokine 12 Panel [2]; Pre and 1 month after IV Use) | IL-8 (Cytokine 12 Panel [2]; Pre and 1 month after IV Use) | IL-13 (Cytokine 12 Panel [2]; Pre and 1 month after IV Use) | IL-12 (Cytokine 12 Panel [2]; Pre and 1 month after IV Use) | IL-2 (Cytokine 12 Panel [2]; Pre and 1 month after IV Use) | TNF-α (Cytokine 12 Panel [2]; Pre and 1 month after IV Use) | IL-1β (Cytokine 12 Panel [2]; Pre and 1 month after IV Use)
268: IL-2R (Cytokine 12 Panel [1]; [3])
30: IL-1β (Cytokine 12 Panel [1]; oral, 1 Week)
66: IL-6 (Cytokine 12 Panel [1]; 2 Weeks off FPA)
8: IL-8 (Cytokine 12 Panel [1]; 2 Weeks off FPA) | IL-13 (Cytokine 12 Panel [1]; 2 Weeks off FPA) | IL-8 (Cytokine 12 Panel [1]; [3]) | IL-8 (Cytokine 12 Panel [1]; oral, 2 weeks)
22: IL-10 (Cytokine 12 Panel [2]; 30 days after IV 50 mg) | IL-10 (Cytokine 12 Panel [2]; Pre and 1 month after IV Use)
5: IFN-γ (Cytokine 12 Panel [1]; [3]) | IFN-γ (Cytokine 12 Panel [1]; oral, 2 weeks) | IL-5 (Cytokine 12 Panel [1]; oral, 2 weeks)
83: IL-1β (Cytokine 12 Panel [1]; oral, 2 weeks)
63: IL-6 (Cytokine 12 Panel [1]; [3])
52: IL-1β (Cytokine 12 Panel [2]; 10 Hours after IV 50 mg)
74: IL-10 (Cytokine 12 Panel [2]; 60 hours after IV 50 mg)
475: IL-2R (Cytokine 12 Panel [2]; 10 Hours after IV 50 mg)
54: IL-1β (Cytokine 12 Panel [2]; 14 hours after IV 50 mg) | IL-1β (Cytokine 12 Panel [2]; 60 hours after IV 50 mg)
77: IL-6 (Cytokine 12 Panel [1]; oral, 2 weeks)
6: IL-5 (Cytokine 12 Panel [1]; 2 Weeks off FPA) | IL-12 (Cytokine 12 Panel [1]; 2 Weeks off FPA) | IL-5 (Cytokine 12 Panel [1]; [3]) | IL-12 (Cytokine 12 Panel [1]; [3]) | IL-13 (Cytokine 12 Panel [1]; oral, 2 weeks) | IL-12 (Cytokine 12 Panel [1]; oral, 2 weeks)
492: IL-2R (Cytokine 12 Panel [2]; 14 hours after IV 50 mg)
230: IL-10 (Cytokine 12 Panel [1]; 2 Weeks off FPA)
183: IL-10 (Cytokine 12 Panel [1]; oral, 2 weeks)
11: IL-6 (Cytokine 12 Panel [2]; 10 Hours after IV 50 mg)
546: IL-2R (Cytokine 12 Panel [2]; 30 days after IV 50 mg) | IL-2R (Cytokine 12 Panel [2]; Pre and 1 month after IV Use)
141: IL-10 (Cytokine 12 Panel [1]; oral, 1 Week)
no appreciable response: response of the cytokine panel to IV administration (Cytokine 12 Panel [2]; IV dose 10 times stronger than the subcutaneous dosage given previously)
48: IL-1β (Cytokine 12 Panel [1]; [3])
10: IL-6 (Cytokine 12 Panel [2]; 14 hours after IV 50 mg)
254: IL-2R (Cytokine 12 Panel [1]; oral, 2 weeks)
37: IL-1β (Cytokine 12 Panel [1]; 2 Weeks off FPA)
504: IL-2R (Cytokine 12 Panel [1]; oral, 1 Week)
255: IL-2R (Cytokine 12 Panel [1]; 2 Weeks off FPA)
7: IL-2 (Cytokine 12 Panel [1]; 2 Weeks off FPA) | IL-2 (Cytokine 12 Panel [1]; [3]) | IL-2 (Cytokine 12 Panel [1]; oral, 2 weeks) | IL-6 (Cytokine 12 Panel [2]; 60 hours after IV 50 mg)
9: IL-13 (Cytokine 12 Panel [1]; [3])
204: IL-10 (Cytokine 12 Panel [1]; [3])
